The text below walks through data of ChEMBL document CHEMBL1132678, “Imidazole-containing diarylether and diarylsulfone inhibitors of farnesyl-protein transferase” (Bioorg Med Chem Lett, 1999).

In test [1] the target is Protein farnesyltransferase (Bos taurus, UniProt P29702+P49355). The experiment in a line: Inhibition of bovine Farnesyltransferase in vitro. Type of test: protein-complex assay.
In another test the test system is Rat1. The experiment in a line: Inhibition of proliferation of v-Ha-ras-transformed RAT1 cells on poly-(HEMA)-coated plates. Type of test: functional, cell-based. Particulars: Rattus norvegicus.
Test [2] addresses Protein farnesyltransferase (Homo sapiens, UniProt P49354+P49356). The test is described as follows: Inhibition of Farnesyltransferase. It counts as protein-complex assay.

pIC50: −log10 of the molar value.

By pIC50 is commonly meant the IC50 on a negative log10 scale, so that one unit is a factor of ten. Lower therefore signals a high IC50. For `CCCCN(Cc1cnc[nH]1)c1ccc(Oc2ccccc2)cc1`, the pIC50 in test [1] was less than 4.00.
On the same count and under the same terms, the figure for `CCCCN(Cc1cncn1Cc1ccc(C#N)cc1)c1ccc(Sc2ccccc2)cc1` is 6.85.
For `Cc1cc(N(Cc2cnc(C)n2Cc2ccc(C#N)cc2)CC2CC2)ccc1S(=O)(=O)c1ccccc1`, the pIC50 in the test on Rat1 was 6.96; in test [1], 8.10.
The like results for `N#Cc1ccc(Cn2cncc2CNc2ccc(S(=O)(=O)c3ccccc3)cc2)cc1` were, in that order, 7.51 and 9.15.
With `Cc1cc(NCc2cncn2Cc2ccc(C#N)cc2)ccc1S(=O)(=O)c1ccccc1`, the pIC50 in the test on Rat1 is 7.80; in test [1], 9.00.
`Cc1ncc(CN(Cc2ccc(C#N)cc2)c2ccc(S(=O)(=O)c3ccccc3)cc2)n1Cc1ccc(C#N)cc1` gave a pIC50 in test [1] of 7.09.
In the case of `CSCC[C@H](NC(=O)[C@H](Cc1c[nH]c2ccccc12)NC(=O)[C@@H](NC(=O)[C@@H](N)CS)C(C)C)C(=O)O`, the negative logarithm of the IC50 (pIC50) in test [2] was 6.28.
Take `CCCCN(Cc1cncn1Cc1ccc(C#N)cc1)c1ccc(Oc2ccccc2)cc1`: the pIC50 in test [1] is 7.38.
Same read-out and setting: the figure for `Cc1cc(N(Cc2cnc(C)n2Cc2ccc(C#N)cc2)C(=O)C2CC2)ccc1S(=O)(=O)c1ccccc1` is 6.63; for `O=[N+]([O-])c1ccc(CN(Cc2c[nH]cn2)c2cccc(Oc3ccccc3)c2)cc1` it is 5.49.
Still for that read-out and setting: the figure for `O=C(O)c1cccc(Oc2ccc(N(Cc3c[nH]cn3)Cc3c[nH]cn3)cc2)c1` is 8.59; for `CCCCN(Cc1cn(Cc2ccc(C#N)cc2)cn1)c1ccc(Oc2ccccc2)cc1` it is less than 4.00; for `O=C(O)c1cccc(Oc2cccc(N(Cc3cnc[nH]3)Cc3cnc[nH]3)c2)c1` it is 7.72.
The same measure, in the same setting: the figure for `N[C@H](CS)CNc1ccc(Oc2cccc(C(=O)O)c2)cc1` is 9.40.
For the compound `N#Cc1ccc(Cn2cncc2CNc2ccc(Oc3ccccc3)cc2)cc1`, in test [1], the pIC50 was 5.89.
Turning to `N#Cc1ccc(CN(Cc2cncn2Cc2ccc(C#N)cc2)c2ccc(Oc3ccccc3)cc2)cc1`, the pIC50 in test [1] was 8.10.
Consider `Cc1cc(NCc2cnc(C)n2Cc2ccc(C#N)cc2)ccc1S(=O)(=O)c1ccccc1`, for which the values for the negative logarithm of the IC50 (pIC50) (with Rat1; in test [1]) were 7.55 and 9.35, respectively.
In turn, `O=[N+]([O-])c1ccc(CN(Cc2cnc[nH]2)c2ccc(Oc3ccccc3)cc2)cc1` had a pIC50 in test [1] of 6.00.
On the same count and under the same terms, the same measure for `N[C@@H](CS)CNc1cccc(Oc2cccc(C(=O)O)c2)c1`: 9.60; for `c1ccc(Oc2ccc(NCc3cnc[nH]3)cc2)cc1`: less than 4.00; for `N#Cc1ccc(Cn2cncc2CNc2ccc(C(=O)c3ccccc3)cc2)cc1`: 9.10.
With `Cc1ncc(CNc2ccc(S(=O)(=O)c3ccccc3)cc2)n1Cc1ccc(C#N)cc1`, the pIC50 in the test with Rat1 is 6.75; in test [1], 7.03.
